Measurements as given in patent US20060275362A1, “Rapidly-dissolving pharmaceutical composition for inhibiting ovulation” (priority 2005, published 2006).

Test: Effect of Tween 80 on the solubility of drospirenone in water
Format: physicochemical
Conditions: Solubility enhancer Tween 80 (Polysorbate 80), drug:enhancer 1:9 parts by weight, agitated approximately 22 hours, versus water alone

## C[C@]12CCC(=O)C=C1[C@@H]1C[C@@H]1[C@H]1[C@@H]3[C@@H]4C[C@@H]4[C@@]4(CCC(=O)O4)[C@@]3(C)CC[C@@H]12 [Drospirenone, (2′S, 6R, 7R, 8R, 9S, 10R, 13S, 14S, 15S, 16S)-1,3′, 4′, 6,7,8,9, 10, 11, 12, 13, 14, 15, 16, 20, 21-hexadecahydro-10, 13-dimethylspiro[17H-dicyclopropa[6,7:15,16]cyclopenta[a]phenanthrene-17,2′(5′H)-furan]-3,5′(2H)-dione]
  % Increase in the Solubility of Drospirenone as Determined by HPLC: 42%
